Test results: patent US20080139558A1, “QUINOLONES USEFUL AS INDUCIBLE NITRIC OXIDE SYNTHASE INHIBITORS” (KALYPSYS, INC., priority 2006, published 2008)

Target: T1, human iNOS (Homo sapiens, UniProt P35228)
T1 construct: expressed in transfected cells; host or cells: HEK293
Experiment: DAN assay of nitric oxide production (hiNOS)
Type: cell-based
Settings: enzyme expressed in HEK293 cells transiently transfected with human iNOS
Description: The source of nitric oxide synthase (NOS) enzyme can be generated in several ways including induction of endogenous iNOS using cytokines and/or lipopolysaccharide (LPS) in various cell types known in the art. Alternatively, the gene encoding the enzyme can be cloned and the enzyme can be generated in cells via heterologous expression from a transient or stable expression plasmid with suitable features for protein expression as are known in the art. Enzymatic activity (nitric oxide production) is calcium independent for iNOS, while the constitutive NOS isoforms, nNOS and eNOS, become active with the addition of various cofactors added to cellular media or extract as are well known in the art. Enzymes specified in Table 1 were expressed in HEK293 cells transiently transfected with human iNOS.
A major metabolic pathway for nitric oxide is to nitrate and nitrite, which are stable metabolites within tissue culture, tissue, plasma, and urine (S Moncada, A Higgs, N Eng J Med 329, 2002 (1993)).
The level of nitrate or nitrite in the specimen can be quantified by any method known in the art which provides adequate sensitivity and reproducibility. A variety of protocols have also been described for detecting and quantifying nitrite and nitrate levels in biological fluids by ion chromatography (e.g., A Everett et al., J. Chromatogr. 706, 437 (1995); J M Monaghan et al., J. Chromatogr. 770, 143 (1997)), high-performance liquid chromatography (e.g., M Kelm et al., Cardiovasc. Res. 41, 765 (1999)), and capillary electrophoresis (MA Friedberg et al., J. Chromatogr. 781, 491 (1997)). For example, 2,3-diaminonaphthalene reacts with the nitrosonium cation that forms spontaneously from NO to form the fluorescent product 1H-naphthotriazole. Using 2,3-diaminonaphthalene (“DAN”), researchers have developed a rapid, quantitative fluorometric assay that can detect from 10 nM to 10 μM nitrite and is compatible with a multi-well microplate format. […] DAN reacts with nitrite ion and gives fluorescent naphthotriazole (MC Carré et al., Analusis 27, 835-838 (1999)). Table 1 provides the test results of various compounds of the subject invention using the DAN assay.
A specimen can be processed prior to determination of nitrate or nitrite as required by the quantification method, or in order to improve the results, or for the convenience of the investigator. For example, processing can involve centrifuging, filtering, or homogenizing the sample. If the sample is whole blood, the blood can be centrifuged to remove cells and the nitrate or nitrite assay performed on the plasma or serum fraction. If the sample is tissue, the tissue can be dispersed or homogenized by any method known in the art prior to determination of nitrate or nitrite. It may be preferable to remove cells and other debris by centrifugation or another method and to determine the nitrate or nitrite level using only the fluid portion of the sample, or the extracellular fluid fraction of the sample. The sample can also be preserved for later determination, for example by freezing of urine or plasma samples. When appropriate, additives may be introduced into the specimen to preserve or improve its characteristics for use in the nitrate or nitrite assay.
The “level” of nitrate, nitrite, or other NO-related product usually refers to the concentration (in moles per liter, micromoles per liter, or other suitable units) of nitrate or nitrite in the specimen, or in the fluid portion of the specimen. However, other units of measure can also be used to express the level of nitrate or nitrite. For example, an absolute amount (in micrograms, milligrams, nanomoles, moles, or other suitable units) can be used, particularly if the amount refers back to a constant amount (e.g., grams, kilograms, milliliters, liters, or other suitable units) of the specimens under consideration. A number of commercially available kits can be used. […]

T1 sequence (P35228 whole entry): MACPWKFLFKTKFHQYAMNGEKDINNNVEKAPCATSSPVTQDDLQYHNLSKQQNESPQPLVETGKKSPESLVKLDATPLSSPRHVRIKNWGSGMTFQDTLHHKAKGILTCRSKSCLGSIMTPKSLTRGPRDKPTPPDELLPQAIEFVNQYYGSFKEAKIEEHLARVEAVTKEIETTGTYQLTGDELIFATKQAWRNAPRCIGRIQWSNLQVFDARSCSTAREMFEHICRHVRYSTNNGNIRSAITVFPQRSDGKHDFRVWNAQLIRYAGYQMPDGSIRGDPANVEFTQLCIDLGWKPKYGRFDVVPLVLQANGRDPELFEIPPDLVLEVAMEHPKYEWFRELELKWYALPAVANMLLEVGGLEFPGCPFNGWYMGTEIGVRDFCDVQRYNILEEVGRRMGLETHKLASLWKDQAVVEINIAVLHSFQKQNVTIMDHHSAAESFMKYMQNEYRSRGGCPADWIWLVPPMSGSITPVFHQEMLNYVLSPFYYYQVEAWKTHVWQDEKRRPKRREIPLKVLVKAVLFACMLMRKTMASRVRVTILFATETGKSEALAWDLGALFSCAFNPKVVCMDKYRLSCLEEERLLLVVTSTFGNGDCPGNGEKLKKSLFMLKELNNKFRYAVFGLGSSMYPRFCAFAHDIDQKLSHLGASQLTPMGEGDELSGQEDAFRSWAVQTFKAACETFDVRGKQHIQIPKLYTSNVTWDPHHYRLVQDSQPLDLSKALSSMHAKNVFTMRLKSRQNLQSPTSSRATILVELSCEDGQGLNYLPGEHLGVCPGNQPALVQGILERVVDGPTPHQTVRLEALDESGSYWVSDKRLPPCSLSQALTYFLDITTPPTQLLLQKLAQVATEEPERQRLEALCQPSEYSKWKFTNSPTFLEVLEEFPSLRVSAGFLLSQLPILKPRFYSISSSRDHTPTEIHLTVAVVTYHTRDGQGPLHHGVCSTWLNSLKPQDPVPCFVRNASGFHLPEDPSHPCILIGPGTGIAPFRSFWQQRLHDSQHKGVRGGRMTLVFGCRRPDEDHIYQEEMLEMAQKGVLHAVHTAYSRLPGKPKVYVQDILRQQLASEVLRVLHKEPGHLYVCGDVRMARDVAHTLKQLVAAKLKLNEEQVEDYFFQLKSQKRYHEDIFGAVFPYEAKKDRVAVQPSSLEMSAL

**Q.** For `Cc1cccc2c1nc(C(C)C)n2Cc1cc(=O)[nH]c2c(F)c(F)ccc12` [Example 224, 7,8-Difluoro-4-((2-isopropyl-4-methyl-1H-benzo[d]imidazol-1-yl)methyl)quinolin-2(1H)-one], which EC50 is on record?
**A.** ≤ 5 µM

**Q.** `O=C(c1cc(=O)[nH]c2c(F)cccc12)N(Cc1cscn1)c1cccc(Cl)c1` [Example 105, N-(3-Chlorophenyl)-8-fluoro-2-oxo-N-(thiazol-4-ylmethyl)-1,2-dihydroquinoline-4-carboxamide] was tested. Which EC50 did it give?
**A.** > 5 µM

**Q.** With `O=c1cc(Cn2c(Cn3ccnc3)nc3ccccc32)c2ccc(F)c(F)c2[nH]1` [Example 251, 4-((2-((1H-Imidazol-1-yl)methyl)-1H-benzo[d]imidazol-1-yl)methyl)-7,8-difluoroquinolin-2(1H)-one] as the compound, how does the EC50 read?
**A.** > 5 µM

**Q.** With `O=c1cc(Cn2c(CN3CCOCC3)nc3ccccc32)c2ccc(F)c(F)c2[nH]1` [Example 194, 7,8-Difluoro-4-((2-(morpholinomethyl)-1H-benzo[d]imidazol-1-yl)methyl)quinolin-2(1H)-one] as the compound, how does the EC50 read?
**A.** > 5 µM

**Q.** For `O=C(C1CC1)N(Cc1cc(=O)[nH]c2c(F)cccc12)c1cccc(Cl)c1` [Example 81, N-(3-Chlorophenyl)-N-((8-fluoro-2-oxo-1,2-dihydroquinolin-4-yl)methyl)cyclopropanecarboxamide], which EC50 is on record?
**A.** > 5 µM

**Q.** With `COc1ccc(C(=O)N(Cc2cc(=O)[nH]c3c(F)cccc23)c2cccc(Cl)c2)cc1` [Example 62, N-(3-Chlorophenyl)-N-((8-fluoro-2-oxo-1,2-dihydroquinolin-4-yl)methyl)-4-methoxybenzamide] as the compound, how does the EC50 read?
**A.** > 5 µM

**Q.** For `O=C(c1cncs1)N(Cc1cc(=O)[nH]c2ccccc12)c1ccccc1` [Example 27, N-((2-Oxo-1,2-dihydroquinolin-4-yl)methyl)-N-phenylthiazole-5-carboxamide], which EC50 is on record?
**A.** > 5 µM

**Q.** Which EC50 does the source give for `O=c1cc(Cn2c(-c3cscn3)nc3ccccc32)c2ccc(F)c(F)c2[nH]1` [Example 193, 7,8-Difluoro-4-((2-(thiazol-4-yl)-1H-benzo[d]imidazol-1-yl)methyl)quinolin-2(1H)-one] here?
**A.** > 5 µM

**Q.** For `O=c1cc(Cn2c(-c3cccnc3)nc3ccccc32)c2ccc(F)c(F)c2[nH]1` [Example 120, 7,8-Difluoro-4-((2-(pyridin-3-yl)-1H-benzo[d]imidazol-1-yl)methyl)quinolin-2(1H)-one], which EC50 is on record?
**A.** > 5 µM

**Q.** Which EC50 does the source give for `Cc1ncsc1C(=O)N(Cc1cc(=O)[nH]c2c(F)c(F)ccc12)c1ccc(F)cc1` [Example 183, N-(4-Fluorolphenyl)-N-((7,8-fluoro-2-oxo-1,2-dihydroquinolin-4-yl)methyl)-4-methylthiazole-5-carboxamide] here?
**A.** ≤ 5 µM

**Q.** With `Cc1ncsc1C(=O)N(Cc1cc(=O)[nH]c2c(F)cccc12)c1ccc(F)c(F)c1` [Example 92, N-(3,4-Difluorophenyl)-N-((8-fluoro-2-oxo-1,2-dihydroquinolin-4-yl)methyl)-4-methylthiazole-5-carboxamide] as the compound, how does the EC50 read?
**A.** ≤ 5 µM

**Q.** For `COc1ccc2[nH]c(=O)cc(CN(C(=O)c3ccco3)c3ccccc3)c2c1` [Example 19, N-((6-Methoxy-2-oxo-1,2-dihydroquinolin-4-yl)methyl)-N-phenylfuran-2-carboxamide], which EC50 is on record?
**A.** ≤ 5 µM

**Q.** With `Cc1ncsc1C(=O)N(Cc1cc(=O)[nH]c2c(F)cccc12)c1ccccc1` [Example 97, N-Phenyl-N-((8-fluoro-2-oxo-1,2-dihydroquinolin-4-yl)methyl)-4-methylthiazole-5-carboxamide] as the compound, how does the EC50 read?
**A.** ≤ 5 µM

**Q.** How did the EC50 turn out when `CC(C)Cc1nc2ccccc2n1Cc1cc(=O)[nH]c2c(F)c(F)ccc12` [Example 195, 7,8-Difluoro-4-((2-isobutyl-1H-benzo[d]imidazol-1-yl)methyl)quinolin-2(1H)-one] was run?
**A.** ≤ 5 µM

**Q.** For `Cc1ccncc1C(=O)N(Cc1c(F)c(=O)[nH]c2c(F)c(F)ccc12)c1cccc(Cl)c1` [Example 116, N-(3-Chlorophenyl)-4-methyl-N-((3,7,8-trifluoro-2-oxo-1,2-dihydroquinolin-4-yl)methyl)nicotinamide], which EC50 is on record?
**A.** ≤ 5 µM

**Q.** Which EC50 does the source give for `Cc1c(-c2nc3ccccc3n2Cc2cc(=O)[nH]c3c(F)c(F)ccc23)ncn1C` [Example 226, 4-((2-(1,5-Dimethyl-1H-imidazol-4-yl)-1H-benzo[d]imidazol-1-yl)methyl)-7,8-difluoroquinolin-2(1H)-one] here?
**A.** > 5 µM

**Q.** With `O=C(c1ccco1)N(Cc1cc(=O)[nH]c2ccccc12)c1ccccc1` [Example 1, N-((2-Oxo-1,2-dihydroquinolin-4-yl)methyl)-N-phenylfuran-2-carboxamide] as the compound, how does the EC50 read?
**A.** ≤ 5 µM

**Q.** `O=c1cc(CN(c2cccc(Cl)c2)c2nccc3ccccc23)c2cccc(F)c2[nH]1` [Example 78, 4-(((3-Chlorophenyl)(isoquinolin-1-yl)amino)methyl)-8-fluoroquinolin-2(1H)-one] was tested. Which EC50 did it give?
**A.** > 5 µM

**Q.** With `Cc1ncsc1S(=O)(=O)N(Cc1cc(=O)[nH]c2c(F)cccc12)c1cccc(Cl)c1` [Example 42, N-(3-Chlorophenyl)-N-((8-fluoro-2-oxo-1,2-dihydroquinolin-4-yl)methyl)-4-methylthiazole-5-sulfonamide] as the compound, how does the EC50 read?
**A.** ≤ 5 µM

**Q.** For `Cc1ncsc1C(=O)N(Cc1cc(=O)[nH]c2c(Cl)cccc12)c1cccc(Cl)c1` [Example 49, N-((8-Chloro-2-oxo-1,2-dihydroquinolin-4-yl)methyl)-N-(3-chlorophenyl)-4-methylthiazole-5-carboxamide], which EC50 is on record?
**A.** > 5 µM

**Q.** Which EC50 does the source give for `Cc1nc(S(=O)(=O)N(Cc2cc(=O)[nH]c3c(F)c(F)ccc23)c2cccc(Cl)c2)cn1C` [Example 265, N-(3-Chlorophenyl)-N-((7,8-difluoro-2-oxo-1,2-dihydroquinolin-4-yl)methyl)-1,2-dimethyl-1H-imidazole-4-sulfonamide] here?
**A.** ≤ 5 µM

**Q.** With `O=C(c1cccs1)N(Cc1cc(=O)[nH]c2ccccc12)c1ccccc1` [Example 7, N-[(2-Oxo-1,2-dihydroquinolin-4-yl)methyl]-N-phenylthiophene-2-carboxamide] as the compound, how does the EC50 read?
**A.** > 5 µM

**Q.** How did the EC50 turn out when `N#Cc1ccccc1C(=O)N(Cc1cc(=O)[nH]c2c(F)cccc12)c1cccc(Cl)c1` [Example 64, N-(3-Chlorophenyl)-2-cyano-N-((8-fluoro-2-oxo-1,2-dihydroquinolin-4-yl)methyl)benzamide] was run?
**A.** > 5 µM

**Q.** For `Cc1ncsc1C(=O)N(Cc1cc(=O)[nH]c2ccccc12)c1ccc(F)c(F)c1` [Example 41], which EC50 is on record?
**A.** > 5 µM

**Q.** Which EC50 does the source give for `O=C(c1ccncc1)N(Cc1cc(=O)[nH]c2ccccc12)c1ccccc1` [Example 34, N-((2-Oxo-1,2-dihydroquinolin-4-yl)methyl)-N-phenylisonicotinamide] here?
**A.** > 5 µM

**Q.** For `O=c1cc(Cn2c(Cc3ccccc3)nc3ccccc32)c2ccc(F)c(F)c2[nH]1` [Example 214, 4-((2-Benzyl-1H-benzo[d]imidazol-1-yl)methyl)-7,8-difluoroquinolin-2(1H)-one], which EC50 is on record?
**A.** ≤ 5 µM

**Q.** For `O=C(c1ccccc1)N(Cc1cc(=O)[nH]c2ccccc12)c1ccccc1` [Example 6, N-[(2-Oxo-1,2-dihydroquinolin-4-yl)methyl]-N-phenylbenzamide], which EC50 is on record?
**A.** > 5 µM

**Q.** How did the EC50 turn out when `O=C(Cc1ccccc1)N(Cc1cc(=O)[nH]c2ccccc12)c1ccccc1` [Example 25, N-((2-Oxo-1,2-dihydroquinolin-4-yl)methyl)-N,2-diphenylacetamide] was run?
**A.** ≤ 5 µM

**Q.** For `Cc1cccc2c1nc(CC(C)C)n2Cc1cc(=O)[nH]c2c(F)c(F)ccc12` [Example 225, 7,8-Difluoro-4-((2-isobutyl-4-methyl-1H-benzo[d]imidazol-1-yl)methyl)quinolin-2(1H)-one], which EC50 is on record?
**A.** ≤ 5 µM

**Q.** How did the EC50 turn out when `O=C(c1cncs1)N(Cc1cc(=O)[nH]c2c(F)cccc12)c1cccc(Cl)c1` [Example 44, N-(3-Chlorophenyl)-N-((8-fluoro-2-oxo-1,2-dihydroquinolin-4-yl)methyl)thiazole-5-carboxamide] was run?
**A.** > 5 µM

**Q.** With `CC(C)C(=O)N(Cc1cc(=O)[nH]c2c(F)cccc12)c1cccc(Cl)c1` [Example 80, N-(3-Chlorophenyl)-N-((8-fluoro-2-oxo-1,2-dihydroquinolin-4-yl)methyl)isobutyramide] as the compound, how does the EC50 read?
**A.** > 5 µM
